These results are taken from patent US20250326744A1, “PIPERAZINE DERIVATIVE OR SALT THEREOF, AND PHARMACEUTICAL COMPOSITION” (priority 2022, published 2025).

Structures can show the parent of a compound that is named as a salt.

Experiment [1] deals with S-3769 strain. Kind of experiment: Combinational effect with antibacterial agent against Pseudomonas aeruginosa (Test Examples 2 and 4): S-3769 strain with AMK or GM at 1/4 MIC, EC99. As to conditions: S-3769 strain, Test Example 4; for EC99, combinational effect with AMK, S-3769 strain: combined with AMK at 1/4 MIC; for EC99, combinational effect with GM, S-3769 strain: combined with GM at 1/4 MIC. Type of experiment: cell-based. Put shortly: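 P. aeruginosa S-3769 (clinical isolate, MexY overexpressed) grown 16–20 h in CAMHB, 10^4 to 5 CFU/well, with AMK or GM at ¼ MIC plus test compound 0–800 μM. Growth read as OD595; EC99 is the lowest compound concentration giving ≥99% growth inhibition.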

Experiment [2] deals with mexB (PA) strain. Kind of experiment: Combinational effect with antibacterial agent against Pseudomonas aeruginosa (Test Examples 2 and 4): mexB (PA) strain with LVFX, TC or AZT at 1/4 MIC, EC99. Type of experiment: cell-based. As to conditions: mexB (PA) strain, Test Example 4; for EC99, combinational effect with AZT, mexB (PA): combined with AZT at 1/4 MIC; for EC99, combinational effect with LVFX, mexB (PA): combined with LVFX at 1/4 MIC; for EC99, combinational effect with TC, mexB (PA): combined with TC at 1/4 MIC. An outline of the steps:
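P. aeruginosa mexB (PA) strain, lacking MexCD-OprJ, MexEF-OprN and MexXY and overexpressing MexAB-OprM, grown 16–20 h in CAMHB (10^4–5 CFU/well) with LVFX, TC or AZT at ¼ MIC plus test compound at 0–800 μM. Growth read as OD595; EC99 is the lowest compound concentration giving ≥99% growth inhibition.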

Consider `CSc1ccccc1CN1CCN(C(=O)[C@H](N)C2CCN(CCc3cscc3-c3ccccc3)CC2)CC1` [Example 539, Hydrobromide of (R)-2-amino-1-(4-(2-(methylthio)benzyl)piperazin-1-yl)-2-(1-(2-(4-phenylthiophen-3-yl)ethyl)piperidin-4-yl)ethan-1-one], for which, in experiment [1], the “EC99, combinational effect with AMK, S-3769 strain” value (from here on “EC99, combinational effect with AMK”) was “B (25 μM<EC99≤100 μM)” and the “EC99, combinational effect with GM, S-3769 strain” value (from here on “EC99, combinational effect with GM”) is reported as “B (25 μM<EC99≤100 μM)”. Moreover, in experiment [2], the “EC99, combinational effect with AZT, mexB (PA)” value (“EC99 … with AZT, mexB (PA)” for short) is “B (25 μM<EC99≤100 μM)”; the “EC99, combinational effect with LVFX, mexB (PA)” value (“EC99 … with LVFX, mexB (PA)” for short) is given as “B (25 μM<EC99≤100 μM)”; the “EC99, combinational effect with TC, mexB (PA)” value (from here on “EC99 … with TC, mexB (PA)”) is “B (25 μM<EC99≤100 μM)”.
For the compound `CSc1ccccc1CN1CCN(C(=O)[C@H](N)C2CCN(CCc3cc(Cl)ccc3-c3cc(O)cc(F)c3)CC2)CC1` [Example 617, (R)-2-amino-2-(1-(2-(4-chloro-3′-fluoro-5′-hydroxy-[1,1′-biphenyl]-2-yl)ethyl)piperidin-4-yl)-1-(4-(2-(methylthio)benzyl)piperazin-1-yl)ethan-1-one], in experiment [1], the “EC99, combinational effect with AMK” value is listed as “S (EC99≤12.5 μM)” and the “EC99, combinational effect with GM” value is listed as “S (EC99≤12.5 μM)”. In experiment [2], the “EC99 … with AZT, mexB (PA)” value is reported as “S (EC99≤12.5 μM)”; the “EC99 … with LVFX, mexB (PA)” value is “S (EC99≤12.5 μM)”; the “EC99 … with TC, mexB (PA)” value was “S (EC99≤12.5 μM)”.
As to `N[C@@H](C(=O)N1CCN(CC2CCCCC2)CC1)C1CCN(CCc2cc(Cl)ccc2-c2ccccc2)CC1` [Example 526, Hydrobromide of (R)-2-amino-2-(1-(2-(4-chloro-[1,1-biphenyl]-2-yl)ethyl)piperidin-4-yl)-1-(4-(cyclohexylmethyl)piperazin-1-yl)ethan-1-one], in experiment [1], the “EC99, combinational effect with AMK” value is reported as “A (12.5 μM<EC99≤25 μM)” and the “EC99, combinational effect with GM” value is “A (12.5 μM<EC99≤25 μM)”. Moreover, in experiment [2], the “EC99 … with AZT, mexB (PA)” value is given as “B (25 μM<EC99≤100 μM)”; the “EC99 … with LVFX, mexB (PA)” value was “B (25 μM<EC99≤100 μM)”; the “EC99 … with TC, mexB (PA)” value is recorded as “A (12.5 μM<EC99≤25 μM)”.
Consider `CCSc1ccc(O)cc1CN1CCN(C(=O)[C@H](N)C2CCN(CCc3cc(Cl)ccc3-c3cc(O)ccc3F)CC2)CC1` [Example 621, (R)-2-amino-2-(1-(2-(4-chloro-2′-fluoro-5′-hydroxy-[1,1′-biphenyl]-2-yl)ethyl)piperidin-4-yl)-1-(4-(2-(ethylthio)-5-hydroxybenzyl)piperazin-1-yl)ethan-1-one], for which, in experiment [1], the “EC99, combinational effect with AMK” value is on record as “S (EC99≤12.5 μM)” and the “EC99, combinational effect with GM” value is on record as “S (EC99≤12.5 μM)”. In experiment [2], the “EC99 … with AZT, mexB (PA)” value was “S (EC99≤12.5 μM)”; the “EC99 … with LVFX, mexB (PA)” value is “S (EC99≤12.5 μM)”; the “EC99 … with TC, mexB (PA)” value is “S (EC99≤12.5 μM)”.
In the case of `CSc1cccnc1CN1CCN(C(=O)[C@H](N)C2CCN(CCc3cc(Cl)ccc3-c3ccccc3)CC2)CC1` [Example 536, Hydrobromide of (R)-2-amino-2-(1-(2-(4-chloro-[1,1-biphenyl]-2-yl)ethyl)piperidin-4-yl)-1-(4-((3-(methylthio)pyridin-2-yl)methyl)piperazin-1-yl)ethan-1-one], in experiment [1], the “EC99, combinational effect with AMK” value was “B (25 μM<EC99≤100 μM)” and the “EC99, combinational effect with GM” value is listed as “B (25 μM<EC99≤100 μM)”. Further, in experiment [2], the “EC99 … with AZT, mexB (PA)” value is reported as “A (12.5 μM<EC99≤25 μM)”; the “EC99 … with LVFX, mexB (PA)” value is recorded as “A (12.5 μM<EC99≤25 μM)”; the “EC99 … with TC, mexB (PA)” value is “B (25 μM<EC99≤100 μM)”.
